Paper PMC8230315, “A Pan-Inhibitor for Protein Arginine Methyltransferase Family Enzymes” (Biomolecules, 2021)
“Also recorded” adds a separate entry of the source.

Legend:
Assay type in all cases: biochemical
[1] = target: T1, PRMT5/MEP50 Complex (Homo sapiens, UniProt O14744); assay: HotSpot radioisotope 3H-AdoMet methyltransferase assay, PRMT5/MEP50
T1 construct: purchased Reaction Biology
Protocol: (§1) Future studies will focus on obtaining structural information of II757 bound to PRMTs to inform how to connect to a substrate portion to increase both potency and selectivity for each PRMT.
(§2) Figure 6 Selectivity of II757 against the panel of PRMTs. II757 was tested in 10 doses with threefold serial dilution in the HotSpot methyltransferase assay at reaction biology. TEXT PRINTED IN THE PICTURE: II757: IC50 (nM) PRMT1: 16.4; IC50 (nM) PRMT3: 321; IC50 (nM) PRMT4: 5.05; IC50 (nM) PRMT5/MEP50 Complex: 18.2; IC50 (nM) PRMT5 (C449S)/MEP50: 36.6; IC50 (nM) PRMT6: 30.5; IC50 (nM) PRMT7: 555; IC50 (nM) PRMT8: 32.1

[2] = tested on: G9a; assay: Selectivity SAHH-coupled fluorescence assay, G9a
Excerpt: (§3) We chose the top four potent compounds (6b and 6l–n) to investigate their selectivities against several in-house methyltransferases including protein arginine methyltransferase TbPRMT7, two members of the protein lysine methyltransferase PKMT (G9a and SETD7), protein N-terminal methyltransferase 1 (NTMT1), and a small molecule methyltransferase nicotinamide N-methyltransferase (NNMT), all of which have a SAM binding site.
(§4) A fluorescence-based SAHH-coupled assay was applied to study the effect of the compound on methyltransferase activity of PRMT7, NTMT1, SETD7, G9a, NNMT, and SAHH. For PRMT7, the assay was performed in a final well volume of 100 μL: 25 mM Tris (pH = 7.5), 50 mM KCl, 0.01% Triton X-100, 5 μM SAHH, 0.2 μM PRMT7, 3 μM AdoMet, and 15 μM ThioGlo1. After incubation for 10 min with the inhibitor, reactions were initiated by the addition of 60 μM H4-21 peptide, and the reaction was monitored for 15 min. […] After incubation for 10 min with the inhibitor, reactions were initiated by the addition of 0.5 μM GPKRIA peptide, and the reaction was monitored for 15 min. […] After incubation for 10 min with the inhibitor, reactions were initiated by the addition of 90 μM H3-21 peptide, and the reaction was monitored for 15 min. […] After incubation for 10 min with the inhibitor, reactions were initiated by the addition of 10 μM nicotinamide, and the reaction was monitored for 18 min. […]

[3] = target: T2, TbPRMT7 (Trypanosoma brucei brucei, UniProt Q582G4); assay: Selectivity SAHH-coupled fluorescence assay, TbPRMT7; settings: at 1.2 μM
T2 construct: made in house
Excerpt: as §3, §4

[4] = target: T3, SETD7 (Homo sapiens, UniProt Q8WTS6); assay: Selectivity SAHH-coupled fluorescence assay, SETD7
T3 construct: made in house
T3 sequence (Q8WTS6 1-366): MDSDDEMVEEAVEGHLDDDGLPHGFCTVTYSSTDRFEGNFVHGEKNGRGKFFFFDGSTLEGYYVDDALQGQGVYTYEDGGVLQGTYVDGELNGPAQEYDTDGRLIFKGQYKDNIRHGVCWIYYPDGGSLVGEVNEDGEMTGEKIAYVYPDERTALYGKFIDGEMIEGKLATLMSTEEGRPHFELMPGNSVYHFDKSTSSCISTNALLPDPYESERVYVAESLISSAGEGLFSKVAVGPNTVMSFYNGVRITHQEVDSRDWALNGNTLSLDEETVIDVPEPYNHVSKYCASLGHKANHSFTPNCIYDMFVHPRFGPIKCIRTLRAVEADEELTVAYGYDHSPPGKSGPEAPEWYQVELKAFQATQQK
Excerpt: as §3
A fluorescence-based SAHH-coupled assay was applied to study the effect of the compound on methyltransferase activity of PRMT7, NTMT1, SETD7, G9a, NNMT, and SAHH. For PRMT7, the assay was performed in a final well volume of 100 μL: 25 mM Tris (pH = 7.5), 50 mM KCl, 0.01% Triton X-100, 5 μM SAHH, 0.2 μM PRMT7, 3 μM AdoMet, and 15 μM ThioGlo1. After incubation for 10 min with the inhibitor, reactions were initiated by the addition of 60 μM H4-21 peptide, and the reaction was monitored for 15 min. For NTMT1, the assay was performed in a final well volume of 100 μL: 25 mM Tris (pH = 7.5), 50 mM KCl, 0.01% Triton X-100, 5 μM SAHH, 0.1 μM NTMT1, 3 μM AdoMet, and 10 μM ThioGlo4. After incubation for 10 min with the inhibitor, reactions were initiated by the addition of 0.5 μM GPKRIA peptide, and the reaction was monitored for 15 min. For SETD7, the assay was performed in a final well volume of 100 μL: 25 mM potassium phosphate buffer (pH = 7.6), 0.01% Triton X-100, 5 μM SAHH, 1 μM SETD7, 2 μM AdoMet, and 10 μM ThioGlo1. After incubation for 10 min with the inhibitor, reactions were initiated by the addition of 90 μM H3-21 peptide, and the reaction was monitored for 15 min. For G9a, the assay was performed in a final well volume of 100 μL: 25 mM potassium phosphate buffer (pH = 7.6), 1 mM EDTA, 2 mM MgCl2, 0.01% Triton X-100, 5 μM SAHH, 0.1 μM His-G9a, 10 μM AdoMet, and 10 μM ThioGlo4. For NNMT, the assay was performed in a final well volume of 100 μL: 25 mM Tris (pH = 7.5), 50 mM KCl, 0.01% Triton X- 100, 5 μM SAHH, 0.1 μM NNMT, 10 μM AdoMet, and 10 μM ThioGlo1. After incubation for 10 min with the inhibitor, reactions were initiated by the addition of 10 μM nicotinamide, and the reaction was monitored for 18 min. The inhibitors were added at five concentrations: 100, 33.3, 11.1, 3.7, and 1.2 μM.

[5] = target: PRMT1 (Homo sapiens, UniProt Q99873); assay: Inhibition mechanism kinetic analysis, SAHH-coupled fluorescence assay with PRMT1
Protocol: The fluorescence-based SAHH-coupled assay was employed for the enzyme kinetic study. Varying concentrations of SAM (from 0.5 to 8 Km) with 5 μM fixed concentration of H4-21 or varying concentration of H4-21 (from 0.5 to 8 Km) with 10 μM fixed concentration of SAM was included in reactions with a series concentration of compounds. All the IC50 values were determined in triplicate. Fluorescence was monitored on a BMG CLARIOstar microplate with excitation at 380 nm and emission at 505 nm. Data were processed using GraphPad Prism software 7.0.

[6] = target: T4, PRMT4 (Homo sapiens, UniProt Q86X55); assay: HotSpot radioisotope 3H-AdoMet methyltransferase assay, PRMT4; settings: IC50 (nM) PRMT4, 10 doses, threefold serial dilution
T4 construct: purchased Reaction Biology
T4 sequence (Q86X55 1-608): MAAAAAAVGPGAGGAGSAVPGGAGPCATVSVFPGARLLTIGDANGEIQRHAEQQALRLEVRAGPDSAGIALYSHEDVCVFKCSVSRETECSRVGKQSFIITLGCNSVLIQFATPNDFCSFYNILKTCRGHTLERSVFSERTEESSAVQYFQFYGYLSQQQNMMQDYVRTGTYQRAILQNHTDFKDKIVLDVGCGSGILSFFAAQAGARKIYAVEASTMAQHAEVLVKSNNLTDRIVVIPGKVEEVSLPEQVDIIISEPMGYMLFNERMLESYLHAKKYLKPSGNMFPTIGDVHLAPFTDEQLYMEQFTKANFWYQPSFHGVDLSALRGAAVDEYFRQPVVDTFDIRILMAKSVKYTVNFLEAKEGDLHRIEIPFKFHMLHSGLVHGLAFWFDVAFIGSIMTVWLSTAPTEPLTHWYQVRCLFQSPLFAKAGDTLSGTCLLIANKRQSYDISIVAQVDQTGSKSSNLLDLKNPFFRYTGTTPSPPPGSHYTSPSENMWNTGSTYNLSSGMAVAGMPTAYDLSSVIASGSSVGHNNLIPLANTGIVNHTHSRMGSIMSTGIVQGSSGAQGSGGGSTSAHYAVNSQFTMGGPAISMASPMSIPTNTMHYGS
Protocol: as §1, §2

Sequence of PRMT1 (Q99873 whole entry, species assumed): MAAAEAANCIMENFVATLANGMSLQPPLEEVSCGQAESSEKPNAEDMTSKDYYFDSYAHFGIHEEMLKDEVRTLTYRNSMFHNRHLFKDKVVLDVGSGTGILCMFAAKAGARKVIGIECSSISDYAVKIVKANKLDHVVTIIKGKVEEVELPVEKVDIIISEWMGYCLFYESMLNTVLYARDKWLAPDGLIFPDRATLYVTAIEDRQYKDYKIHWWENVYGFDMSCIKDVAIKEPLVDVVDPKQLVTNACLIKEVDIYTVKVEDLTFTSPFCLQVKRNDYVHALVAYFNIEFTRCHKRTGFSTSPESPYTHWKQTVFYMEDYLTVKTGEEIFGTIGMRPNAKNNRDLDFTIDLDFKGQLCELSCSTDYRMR
T2 sequence (Q582G4 whole entry): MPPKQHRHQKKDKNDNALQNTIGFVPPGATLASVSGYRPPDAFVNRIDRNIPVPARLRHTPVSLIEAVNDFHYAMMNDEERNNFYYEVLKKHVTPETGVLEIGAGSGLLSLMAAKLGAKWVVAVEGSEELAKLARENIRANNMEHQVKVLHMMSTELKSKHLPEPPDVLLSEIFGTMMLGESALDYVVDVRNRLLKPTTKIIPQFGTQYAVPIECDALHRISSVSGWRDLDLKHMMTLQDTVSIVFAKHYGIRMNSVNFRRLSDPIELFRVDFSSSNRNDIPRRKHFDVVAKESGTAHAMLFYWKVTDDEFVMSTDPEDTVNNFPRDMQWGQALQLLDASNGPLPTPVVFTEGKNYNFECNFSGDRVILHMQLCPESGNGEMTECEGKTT
T1 sequence (O14744 whole entry): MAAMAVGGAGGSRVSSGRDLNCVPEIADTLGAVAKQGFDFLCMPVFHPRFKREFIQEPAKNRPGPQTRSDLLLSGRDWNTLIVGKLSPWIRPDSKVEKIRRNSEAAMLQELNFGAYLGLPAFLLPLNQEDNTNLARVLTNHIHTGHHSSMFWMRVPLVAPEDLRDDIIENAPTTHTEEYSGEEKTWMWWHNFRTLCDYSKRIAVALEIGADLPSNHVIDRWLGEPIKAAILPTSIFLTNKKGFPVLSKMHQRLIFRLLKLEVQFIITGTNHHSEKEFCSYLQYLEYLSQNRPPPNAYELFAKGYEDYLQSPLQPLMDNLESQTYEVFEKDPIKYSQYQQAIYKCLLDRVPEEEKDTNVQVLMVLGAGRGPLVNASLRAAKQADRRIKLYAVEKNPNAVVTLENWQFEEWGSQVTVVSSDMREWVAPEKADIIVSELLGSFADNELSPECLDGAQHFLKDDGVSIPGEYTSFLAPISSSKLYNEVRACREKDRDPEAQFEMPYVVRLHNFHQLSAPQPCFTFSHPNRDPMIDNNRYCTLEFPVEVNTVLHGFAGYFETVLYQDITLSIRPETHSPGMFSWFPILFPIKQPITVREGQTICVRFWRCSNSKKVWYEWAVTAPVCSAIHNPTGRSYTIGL
T1 sequence (Q9BQA1 whole entry partner): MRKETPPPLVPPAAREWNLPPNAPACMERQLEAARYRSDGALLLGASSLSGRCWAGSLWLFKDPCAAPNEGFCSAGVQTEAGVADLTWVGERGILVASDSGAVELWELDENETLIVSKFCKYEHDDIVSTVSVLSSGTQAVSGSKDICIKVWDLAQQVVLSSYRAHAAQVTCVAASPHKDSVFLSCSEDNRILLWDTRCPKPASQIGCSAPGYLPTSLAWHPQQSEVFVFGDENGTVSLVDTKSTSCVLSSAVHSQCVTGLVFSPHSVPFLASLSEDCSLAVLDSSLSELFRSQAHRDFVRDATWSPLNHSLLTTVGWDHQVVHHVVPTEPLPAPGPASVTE

N=C(NCCCSC[C@H]1O[C@@H](n2cnc3c(N)ncnc32)[C@H](O)[C@@H]1O)Nc1cccc(Br)c1 [Compound 6l, 1-(3-((((2S,3S,4R,5R)-5-(6-amino-9H-purin-9-yl)-3,4-dihydroxytetrahydrofuran-2-yl)methyl)thio)propyl)-3-(3-bromophenyl)guanidine]
IC50 [1]: 18.2 nM | selectivity over G9a [2]: over 1000 fold | activity against PRMT7 [3]: about 30% | selectivity over SETD7 [4]: over 1000 fold | inhibition pattern versus peptide substrate H4-21 ([5]; H4-21 from 0.5 to 8 Km, SAM fixed at 10 µM): noncompetitive | inhibition pattern versus SAM ([5]; SAM from 0.5 to 8 Km, H4-21 fixed at 5 µM, listed as II757): competitively binds at the SAM binding site; also recorded: SAM-competitive inhibitor | IC50 [6]: 5 nM
